Measured values: ChEMBL document CHEMBL5241057, “Outline of gelatinase inhibitors as anti-cancer agents: A patent mini-review for 2010-present” (Eur J Med Chem, 2021)
pIC50, pKi: −log10 of the molar value. Where a SMILES comes first, the peptide text is derived from it. [ ]: non-standard residue; d: D form. The star is where a group is joined. ξ: configuration not given here. Pro(trans-4-F) = O=C(O)[C@@H]1C[C@@H](F)CN1; NMeIle(3ξ) = CCC(C)[C@H](NC)C(=O)O; Dab = NCC[C@H](N)C(=O)O; Hexanoyl = CCCCCC(=O)*; Bz = O=C(c1ccccc1)*; NHOH = ON*

Tests used:
[1] = biological target: T1, 72 kDa type IV collagenase (Homo sapiens, UniProt P08253); experiment: Inhibition of MMP2 (unknown origin) assessed as inhibition constant
T1 sequence (P08253 whole entry): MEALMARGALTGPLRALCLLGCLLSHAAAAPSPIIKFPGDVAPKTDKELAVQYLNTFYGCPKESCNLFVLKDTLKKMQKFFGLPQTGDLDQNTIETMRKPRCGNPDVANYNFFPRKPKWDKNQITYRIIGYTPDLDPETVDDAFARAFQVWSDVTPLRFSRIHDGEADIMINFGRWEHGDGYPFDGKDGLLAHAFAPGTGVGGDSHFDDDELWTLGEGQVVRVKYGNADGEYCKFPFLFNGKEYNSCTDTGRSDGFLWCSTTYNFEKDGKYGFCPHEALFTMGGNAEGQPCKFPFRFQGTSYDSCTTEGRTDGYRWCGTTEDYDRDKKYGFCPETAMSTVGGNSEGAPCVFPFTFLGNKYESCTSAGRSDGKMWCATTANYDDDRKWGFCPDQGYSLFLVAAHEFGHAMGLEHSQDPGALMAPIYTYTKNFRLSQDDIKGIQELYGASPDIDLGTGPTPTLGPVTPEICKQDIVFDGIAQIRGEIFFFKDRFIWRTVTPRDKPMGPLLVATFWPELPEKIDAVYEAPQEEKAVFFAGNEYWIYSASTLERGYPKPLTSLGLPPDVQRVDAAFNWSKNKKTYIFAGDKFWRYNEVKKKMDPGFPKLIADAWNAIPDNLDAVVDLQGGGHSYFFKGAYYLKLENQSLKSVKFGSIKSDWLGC

[2] = biological target: T2, Matrix metalloproteinase-9 (Homo sapiens, UniProt P14780); experiment: Inhibition of MMP9 (unknown origin) assessed as inhibition constant
T2 sequence (P14780 whole entry): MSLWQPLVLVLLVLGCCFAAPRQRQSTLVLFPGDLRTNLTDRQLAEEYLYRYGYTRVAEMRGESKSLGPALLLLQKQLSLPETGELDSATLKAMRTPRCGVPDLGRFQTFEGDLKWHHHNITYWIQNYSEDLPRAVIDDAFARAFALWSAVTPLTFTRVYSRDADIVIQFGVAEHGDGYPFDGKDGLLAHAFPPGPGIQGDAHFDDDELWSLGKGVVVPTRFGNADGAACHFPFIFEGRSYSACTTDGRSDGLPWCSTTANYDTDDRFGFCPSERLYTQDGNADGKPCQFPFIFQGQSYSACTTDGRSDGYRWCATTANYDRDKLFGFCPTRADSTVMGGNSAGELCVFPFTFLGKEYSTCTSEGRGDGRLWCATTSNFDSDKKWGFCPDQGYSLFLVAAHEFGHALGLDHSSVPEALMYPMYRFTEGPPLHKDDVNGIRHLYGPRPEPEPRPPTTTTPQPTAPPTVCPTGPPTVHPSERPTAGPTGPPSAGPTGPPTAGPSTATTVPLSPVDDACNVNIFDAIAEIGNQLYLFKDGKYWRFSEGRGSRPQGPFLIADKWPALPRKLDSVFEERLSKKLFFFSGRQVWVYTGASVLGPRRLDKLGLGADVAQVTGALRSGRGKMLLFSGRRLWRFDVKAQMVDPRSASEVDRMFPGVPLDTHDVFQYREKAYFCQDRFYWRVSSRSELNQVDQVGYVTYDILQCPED

[3] = biological target: T1, 72 kDa type IV collagenase; experiment: Inhibition of MMP2 (unknown origin)
[4] = biological target: T2, Matrix metalloproteinase-9; experiment: Inhibition of MMP9 (unknown origin)
[5] = biological target: T3, Matrilysin (Homo sapiens, UniProt P09237); experiment: Inhibition of MMP7 (unknown origin) assessed as inhibition constant
T3 sequence (P09237 whole entry): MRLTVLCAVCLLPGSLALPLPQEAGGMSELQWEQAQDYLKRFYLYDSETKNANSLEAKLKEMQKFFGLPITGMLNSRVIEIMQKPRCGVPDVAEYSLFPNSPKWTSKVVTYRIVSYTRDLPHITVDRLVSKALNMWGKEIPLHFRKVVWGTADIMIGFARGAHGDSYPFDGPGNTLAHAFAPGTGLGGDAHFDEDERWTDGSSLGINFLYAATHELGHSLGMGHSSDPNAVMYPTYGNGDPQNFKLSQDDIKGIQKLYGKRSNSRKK

[6] = tested on: B16-BL6; experiment: Antimetastatic activity in mouse implanted with mouse B16-BL6 cells assessed as inhibition of lung metastasis at 2.5 mg/kg relative to control; format: functional; set-up: scale not given: the % may be the effect or the level left
[7] = tested on: B16-BL6; experiment: Antimetastatic activity in mouse implanted with mouse B16-BL6 cells assessed as inhibition of lung metastasis at 5 mg/kg relative to control; format: functional; set-up: scale not given: the % may be the effect or the level left
[8] = tested on: B16-BL6; experiment: Antimetastatic activity in mouse implanted with mouse B16-BL6 cells assessed as inhibition of lung metastasis at 7.5 mg/kg relative to control; format: functional; set-up: scale not given: the % may be the effect or the level left
[9] = biological target: Macrophage metalloelastase (Homo sapiens, UniProt P39900); experiment: Inhibition of MMP12 (unknown origin)
Chain of Macrophage metalloelastase (P39900 whole entry): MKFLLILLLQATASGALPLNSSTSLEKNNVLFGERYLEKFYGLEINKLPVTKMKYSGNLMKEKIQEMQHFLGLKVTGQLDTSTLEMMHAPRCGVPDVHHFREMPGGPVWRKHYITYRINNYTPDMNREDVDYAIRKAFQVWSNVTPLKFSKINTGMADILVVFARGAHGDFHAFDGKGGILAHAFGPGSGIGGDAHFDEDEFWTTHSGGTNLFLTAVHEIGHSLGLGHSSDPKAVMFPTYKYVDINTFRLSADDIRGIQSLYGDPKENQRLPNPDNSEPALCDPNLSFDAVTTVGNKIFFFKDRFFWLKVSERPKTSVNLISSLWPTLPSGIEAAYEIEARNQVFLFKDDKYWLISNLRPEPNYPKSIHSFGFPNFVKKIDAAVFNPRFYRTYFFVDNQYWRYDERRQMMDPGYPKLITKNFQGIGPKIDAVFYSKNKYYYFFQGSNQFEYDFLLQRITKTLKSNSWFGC

[10] = biological target: T2, Matrix metalloproteinase-9; experiment: Inhibition of MMP9 (unknown origin) assessed as dissociation constant
[11] = biological target: Neutrophil collagenase (Homo sapiens, UniProt P22894); experiment: Inhibition of MMP8 (unknown origin)
Chain of Neutrophil collagenase (P22894 whole entry): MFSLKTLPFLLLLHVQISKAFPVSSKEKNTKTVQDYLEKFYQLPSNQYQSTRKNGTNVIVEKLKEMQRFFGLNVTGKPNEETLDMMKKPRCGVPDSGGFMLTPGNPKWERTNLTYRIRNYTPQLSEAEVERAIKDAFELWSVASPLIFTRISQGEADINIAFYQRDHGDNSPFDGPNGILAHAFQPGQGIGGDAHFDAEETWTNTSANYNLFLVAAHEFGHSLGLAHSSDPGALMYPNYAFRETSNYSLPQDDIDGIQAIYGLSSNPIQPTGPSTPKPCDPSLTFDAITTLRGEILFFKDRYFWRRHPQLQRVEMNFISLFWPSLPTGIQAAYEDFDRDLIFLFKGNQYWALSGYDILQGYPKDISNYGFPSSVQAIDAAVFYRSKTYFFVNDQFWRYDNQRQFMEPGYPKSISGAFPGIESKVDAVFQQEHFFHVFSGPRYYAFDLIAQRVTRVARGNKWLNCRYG

[12] = biological target: T3, Matrilysin; experiment: Inhibition of MMP7 (unknown origin)
[13] = biological target: Matrix metalloproteinase-14 (Homo sapiens, UniProt P50281); experiment: Inhibition of MMP14 (unknown origin)

## CN([C@H]1CN(C(N)=O)C[C@@H]1S)S(=O)(=O)c1ccc(Oc2ccccc2)cc1
[1]
  pIC50: 8.64
[2]
  pIC50: 8.89

## NCCCCCC(=O)N1C[C@H](NS(=O)(=O)c2ccc(Oc3ccccc3)cc2)[C@@H](S)C1
[1]
  pIC50: 8.66
[2]
  pIC50: 8.64

## NCc1ccc(Oc2ccc(S(=O)(=O)CC3CS3)cc2)cc1 (centres undefined)
[3]
  pIC50: 7.07

## CS(=O)(=O)Nc1ccc(Oc2ccc(S(=O)(=O)CC3CS3)cc2)cc1 (centres undefined)
[2]
  pIC50: 7.10

## CC(=O)NCc1ccc(Oc2ccc(S(=O)(=O)CC3CS3)cc2)cc1 (centres undefined)
[3]
  pIC50: 6.63

## O=C(NO)C1(S(=O)(=O)c2ccc(-n3cc(-c4ccc(-c5ccncc5)cc4)nn3)cc2)CCOCC1
[3]
  pIC50: 9.64

## CN(C)c1ccc(-c2cn(-c3ccc(S(=O)(=O)NC(Cc4ccccc4)C(=O)NO)cc3)nn2)cc1 (centres undefined)
[3]
  pIC50: 9.66
[4]
  pIC50: 9.00
[5]
  pKi: 3.94

## C[C@@H]1O[C@@H](O[C@H]2[C@H](O[C@H]3CC[C@@]4(C)C(CC[C@]5(C)C4CC=C4C6CC(C)(C)CC[C@]6(C(=O)O)CC[C@]45C)[C@]3(C)COC(=O)[C@]3(O)C[C@@H](O)[C@@H](O)[C@H](OC(=O)/C=C/c4ccc(O)c(O)c4)C3)OC[C@H](O)[C@@H]2O)[C@H](O)[C@H](O)[C@H]1O (some centres undefined)
[3]
  pIC50: 5.21
[4]
  pIC50: 5.15
[6]
  Activity: 43.5%
[7]
  Activity: 52.9%
[8]
  Activity: 75.2%

## CCc1ccc(-c2cc(-c3ccc(S(=O)(=O)N[C@H](C(=O)O)C(C)C)cc3)no2)s1
[3]
  pIC50: 10.19
[4]
  pIC50: 9.54
[9]
  pIC50: 9.25

## Cc1nc2ccccc2n(CC(=O)NN/C=C\c2cccc([N+](=O)[O-])c2)c1=O
[3]
  pIC50: 5.70

## NS(=O)(=O)c1cc(C(=O)c2ccc3c(-c4ccccc4)c[nH]c3c2)ccc1Cl
[3]
  pIC50: 7.28

## Cc1ccc(NCC(=O)[C@@H](Cc2ccccc2)NC(=O)Cn2c(=O)c(C)nc3ccccc32)cc1
[3]
  pIC50: 4.98

## COC(=O)Cc1ccc(Oc2ccc(S(=O)(=O)CC3CS3)cc2)cc1 (centres undefined)
[2]
  pKi: 6.74

## O=C(CCCSc1nc(=O)c2ccccc2[nH]1)Nc1nc2ccccc2[nH]1
[10]
  pIC50: 6.52

## CC(C)c1noc([C@@H](NC(=O)[C@H](CC2CCCC2)[C@H](O)C(=O)NO)C(C)(C)C)n1
[4]
  pIC50: > 7.00

## NCc1nc(-c2ccc(Oc3ccc(S(=O)(=O)CC4CS4)cc3)cc2)no1 (centres undefined)
[3]
  pIC50: 6.20

## Cc1ccc(-c2cc(-c3ccc(S(=O)(=O)N[C@H](C(=O)O)C(C)C)cc3)no2)s1
[3]
  pIC50: 10.35
[4]
  pIC50: 9.47
[11]
  pIC50: 9.25
[9]
  pIC50: 9.43

## CCCCCC(=O)N1C[C@H](F)C[C@H]1C(=O)N(C)[C@H](C(=O)N[C@@H](CCNC(=O)c1ccccc1)C(=O)NO)C(C)CC (stereo partly drawn) (Hexanoyl-[Pro(trans-4-F)]-[NMeIle(3ξ)]-[Dab](Bz)-{NHOH})
[3]
  pIC50: > 9.00

## CC(C)=CCc1cc(/C=C/C(=O)O)cc(CC=C(C)C)c1O [ARTEPILLIN]
[3]
  pIC50: 5.51
[12]
  pIC50: 3.49
[13]
  pIC50: 3.46
